Values quoted from earlier work as cited in patent US6667408B2, “Process for preparing cyclic polyethers” (Japan Science and Technology Corporation, priority 2000, dated 2003).

Test system: mice
Details: i.p.

Structure (SMILES): C=CC/C=C\C=C/[C@H]1O[C@H]2C[C@H]3O[C@H]4CC[C@H]5O[C@H]6C[C@@]7(C)O[C@@]8(C)[C@@H](O)C[C@H](CCCO)O[C@@H]8C[C@@H]7O[C@@H]6C[C@@H]5O[C@]4(C)C[C@]3(C)O[C@@H]2C=C[C@]1(C)O [gambierol]
- LD50: 0.05 mg/kg
